# In patent US12053506B2, “Romo1-derived antimicrobial peptides and variants thereof” (priority 2019, dated 2024):
# No end group written: not given here.
# Test system: multidrug-resistant Pseudomonas aeruginosa
# Assay: not given
# Conditions: 4 h
# Protocol: (§1) First, each of Pseudomonas aeruginosa (ATCC 27853) and Staphylococcus aureus (ATCC 29213) was cultured in 3% (w/v) TSB (Tryptic Soy Broth) liquid medium at 37° C. and 200 rpm for 4 hours, and then further cultured under the same conditions for 3 hours to a concentration of 5×10^6 CFU/ml. Strain solutions were prepared by diluting each of the further cultured strains with SP (sodium phosphate; 10 mM sodium phosphate, 1% TSB) buffer to a final concentration of 2×10^5 CFU/ml.
# (§2) Then, each peptide at varying concentrations (0 μg/ml to 300 μg/ml) was dispensed into each well of a 96-well microplate, and 100 μl (1×10^5 CFU/ml) of each of the prepared strain solutions was added thereto, mixed therewith, and allowed to react with the peptide in an incubator at 37° C. for 1 hour.
# (§3) In addition, 30 g/L of TS (tryptic soy) and 15 g/L of agar were dissolved in distilled water and sterilized, and then 25 ml of the solution was poured onto a 100 mm round plate and solidified at room temperature for one day or more, thereby preparing a TS agar plate. 10 μl of each reaction solution of the peptide and the strain was plated on the TS agar plate at a constant size, and incubated in an incubator at 37° C. for 18 hours, and then colony formation on the plate was checked.
# (§4) Specifically, each type of bacteria was cultured in 3% (w/v) TSB (Tryptic Soy Broth) liquid medium at 37° C. and 200 rpm for 4 hours, and then further cultured under the same conditions for 3 hours to a concentration of 5×10^6 CFU/ml. Strain solutions were prepared by diluting each of the […] of 2×10^5 CFU/ml.
# as §2, with “Then, the KU-5878” for “Then, each”
# (§5) In addition, 10 μl of each reaction solution of the peptide and the strain was plated on the TS agar plate at a constant size, and incubated in an incubator at 37° C. for 18 hours, and then colony formation on the plate was checked.
# Meanwhile, the multidrug-resistant Pseudomonas aeruginosa, multidrug-resistant Acinetobacter and multidrug-resistant Klebsiella in Table 2 below were bacteria isolated from patients at Korea University Anam Hospital. […] Then, these bacteria were used in the experiment.
row,Sequence,MBC value (μg/ml) against multidrug-resistant Pseudomonas aeruginosa
1,ATMMQSGGTFGTFMAIGMGIR [KU-5878-K58A],>300 µg/mL
2,KTMMQSGGTFGKFMAIGMGIR [KU-5878-T69K],150 µg/mL
3,KTMMQSGGTFGTFMAIGMGIA [KU-5878-R78A],>300 µg/mL
4,RTMMQSGGTFGTFMAIGMGIR [KU-5878-K58R],120 µg/mL

# Test system: Pseudomonas aeruginosa (ATCC 27853)
# Assay: not given
# Type: cell-based
# Conditions: ATCC 27853, 1 h
# From the text: (§6) Romo1 protein comprises two α-helices. The present inventors synthesized the α-helix 2 region having both hydrophilicity and hydrophobicity, and evaluated the antibacterial activity thereof using minimum bactericidal concentration (MBC) assay. The α-helix 2 region was named KU-5279 (the 52-79 amino acid region of Romo1 protein). Then, in order to identify peptides that are beneficial for human application and have excellent antibacterial activity, the present inventors synthesized several peptides comprising a sequence of contiguous amino acids starting at any amino acid selected from the 52-79 amino acid region of Romo1 protein, and comparatively evaluated the antibacterial activities of the peptides by minimum bactericidal concentration assay (See Table 1 below for information on each peptide). Evaluation of the antibacterial activity of each peptide by minimum bactericidal concentration assay was specifically performed as follows. First, each of Pseudomonas aeruginosa (ATCC 27853) and Staphylococcus aureus (ATCC 29213) was cultured in 3% (w/v) TSB (Tryptic Soy Broth) liquid medium at 37° C. and 200 rpm for 4 hours, and then further cultured under the same conditions for 3 hours to a concentration of 5×10^6 CFU/ml. Strain solutions were prepared by diluting each of the further cultured strains with SP (sodium phosphate; 10 mM sodium phosphate, 1% TSB) buffer to a final concentration of 2×10^5 CFU/ml. Then, each peptide at varying concentrations (0 μg/ml to 300 μg/ml) was dispensed into each well of a 96-well microplate, and 100 μl (1×10^5 CFU/ml) of each of the prepared strain solutions was added thereto, mixed therewith, and allowed to react with the peptide in an incubator at 37° C. for 1 hour. In addition, 30 g/L of TS (tryptic soy) and 15 g/L of agar were dissolved in distilled water and sterilized, and then 25 ml of the solution was poured onto a 100 mm round plate and solidified at room temperature for one day or more, thereby preparing a TS agar plate. 10 μl of each reaction solution of the peptide and the strain was plated on the TS agar plate at a constant size, and incubated in an incubator at 37° C. for 18 hours, and then colony formation on the plate was checked. The minimum bactericidal concentration was defined as the minimum concentration of the peptide at which no colony was formed, and the experimental results are shown in Table 1 below.
row,Sequence,MBC value (μg/ml) against Pseudomonas aeruginosa
1,ATMMQSGGTFGTFMAIGMGIR [KU-5878-K58A],>300 µg/mL
2,KTMMQSGGTFGKFMAIGMGIR [KU-5878-T69K],140 µg/mL
3,KTMMQSGGTFGTFMAIGMGIA [KU-5878-R78A],>300 µg/mL
4,RTMMQSGGTFGTFMAIGMGIR [KU-5878-K58R],120 µg/mL
5,KTMMQSGGTWGTFMAIGMGIR [KU-5878-F67W],80 µg/mL
6,KTMMQSGGTFGTFMAIGMGTR [KU-5878-I77T],>300 µg/mL

# Same assay, conditions: Tables 11-15, no unit printed
row,Sequence,MBC Pseudomonas aeruginosa
1,ATMMQSGGTFGTFMAIGMGIR [KU-5878-K58A],> 300 mg/L
2,KTMMQSGGTFGKFMAIGMGIR [KU-5878-T69K],140 mg/L
3,KTMMQSGGTFGTFMAIGMGIA [KU-5878-R78A],> 300 mg/L
4,RTMMQSGGTFGTFMAIGMGIR [KU-5878-K58R],120 mg/L
5,KTMMQSGGTWGTFMAIGMGIR [KU-5878-F67W],80 mg/L
6,KTMMQSGGTFGTFMAIGMGTR [KU-5878-I77T],> 300 mg/L

# Test system: Staphylococcus aureus (ATCC 29213)
# Assay: not given
# Type: cell-based
# Conditions: ATCC 29213, 1 h
# From the text: as §6
row,Sequence,MBC value (μg/ml) against Staphylococcus aureus
1,ATMMQSGGTFGTFMAIGMGIR [KU-5878-K58A],>300 µg/mL
2,KTMMQSGGTFGKFMAIGMGIR [KU-5878-T69K],130 µg/mL
3,KTMMQSGGTFGTFMAIGMGIA [KU-5878-R78A],>300 µg/mL
4,RTMMQSGGTFGTFMAIGMGIR [KU-5878-K58R],120 µg/mL
5,KTMMQSGGTWGTFMAIGMGIR [KU-5878-F67W],80 µg/mL
6,KTMMQSGGTFGTFMAIGMGTR [KU-5878-I77T],>300 µg/mL

# Same assay, conditions: Tables 11-15, no unit printed
row,Sequence,MBC Staphylococcus aureus
1,ATMMQSGGTFGTFMAIGMGIR [KU-5878-K58A],> 300 mg/L
2,KTMMQSGGTFGKFMAIGMGIR [KU-5878-T69K],130 mg/L
3,KTMMQSGGTFGTFMAIGMGIA [KU-5878-R78A],> 300 mg/L
4,RTMMQSGGTFGTFMAIGMGIR [KU-5878-K58R],120 mg/L
5,KTMMQSGGTWGTFMAIGMGIR [KU-5878-F67W],80 mg/L
6,KTMMQSGGTFGTFMAIGMGTR [KU-5878-I77T],> 300 mg/L

# Test system: CRPA
# Assay: MBC, evaluation of antibacterial activities of KU-5878 variants
# Type: cell-based
# Conditions: Tables 11-15, no unit printed
# Protocol: Variants were prepared by deleting one amino acid from the amino acid sequence of KU-5878 (SEQ ID NO: 13), and the antibacterial activities thereof were evaluated.
# Variants were prepared by deleting two or more amino acids from the amino acid sequence of KU-5878 (SEQ ID NO: 13), and the antibacterial activities thereof were evaluated.
# One amino acid in the amino acid sequence of KU-5878 (SEQ ID NO: 13) was substituted, and the antibacterial activities of the peptides were evaluated.
# Substitutions of Q62K, S63K and T66K were sequentially added to the amino acid sequence of KU-5878-T59K, and the antibacterial activities of the peptides were evaluated.
# An amino acid repeat sequence was added to the C-terminus of KU-5878, and the antibacterial activities of the peptides were evaluated. According to Table 15 below, when the R (arginine) repeat sequence or K (lysine) sequence was added to the C-terminus of KU-5878, the antibacterial activity of the peptide increased.
row,Sequence,MBC CRPA
1,ATMMQSGGTFGTFMAIGMGIR [KU-5878-K58A],> 300 mg/L
2,KTMMQSGGTFGKFMAIGMGIR [KU-5878-T69K],150 mg/L
3,KTMMQSGGTFGTFMAIGMGIA [KU-5878-R78A],> 300 mg/L
4,RTMMQSGGTFGTFMAIGMGIR [KU-5878-K58R],120 mg/L
5,KTMMQSGGTWGTFMAIGMGIR [KU-5878-F67W],80 mg/L
6,KTMMQSGGTFGTFMAIGMGTR [KU-5878-I77T],> 300 mg/L

# Test system: methicillin-resistant Staphylococcus aureus (ATCC 33591)
# Assay: not given
# Conditions: ATCC 33591, 4 h
# Protocol: as §1, §2, §3, §4
# as §2, with “Then, the KU-5878” for “Then, each”
# as §5
row,Sequence,MBC value (μg/ml) against methicillin-resistant Staphylococcus aureus
1,ATMMQSGGTFGTFMAIGMGIR [KU-5878-K58A],>300 µg/mL
2,KTMMQSGGTFGKFMAIGMGIR [KU-5878-T69K],150 µg/mL
3,KTMMQSGGTFGTFMAIGMGIA [KU-5878-R78A],>300 µg/mL
4,RTMMQSGGTFGTFMAIGMGIR [KU-5878-K58R],130 µg/mL

# Same assay, conditions: Tables 11-15, no unit printed
row,Sequence,MBC MRSA
1,ATMMQSGGTFGTFMAIGMGIR [KU-5878-K58A],> 300 mg/L
2,KTMMQSGGTFGKFMAIGMGIR [KU-5878-T69K],150 mg/L
3,KTMMQSGGTFGTFMAIGMGIA [KU-5878-R78A],> 300 mg/L
4,RTMMQSGGTFGTFMAIGMGIR [KU-5878-K58R],120 mg/L
5,KTMMQSGGTWGTFMAIGMGIR [KU-5878-F67W],90 mg/L
6,KTMMQSGGTFGTFMAIGMGTR [KU-5878-I77T],> 300 mg/L
